Assay results as given in ChEMBL document CHEMBL4011640, “Identification and Structure-Activity Relationships of Novel Compounds that Potentiate the Activities of Antibiotics in Escherichia coli” (J Med Chem, 2017).
≈ marks a conversion by molar mass, not a printed value. Calls of active or inactive are those of the source. The rule behind the calls is not given here.

Assays:
[1] = test system: Escherichia coli BW25113; experiment: Inhibition of AcrA efflux pump in Escherichia coli BW25113 assessed as compound concentration required for potentiation of novobiocin-induced antibacterial activity by 4 fold by checkerboard assay
[2] = test system: Escherichia coli; experiment: Antimicrobial activity against Escherichia coli BW25113 after 24 hrs by two-fold broth microdilution assay; format: functional; settings: BW25113, 24 h
[3] = test system: Escherichia coli; experiment: Antimicrobial activity against Escherichia coli harboring pores in outer membrane after 24 hrs by two-fold broth microdilution assay; format: functional
[4] = test system: Escherichia coli; experiment: Antimicrobial activity against Escherichia coli harboring AcrAB-TolC deletion mutant after 24 hrs by two-fold broth microdilution assay; format: functional
[5] = test system: Escherichia coli; experiment: Antimicrobial activity against AcrAB-TolC knocked out Escherichia coli GD102 harboring […] pores in the outer membrane after 24 hrs by two-fold broth microdilution assay; format: functional; settings: GD102, 24 h
[6] = test system: Escherichia coli; experiment: Binding affinity to Escherichia coli AG100 His-tagged AcrA at 25 uM by SPR assay
[7] = test system: Escherichia coli; experiment: Inhibition of AcrA in Escherichia coli assessed as increase in HT dye uptake at 25 uM measured up to 600 secs by fluorescence method
[8] = test system: Escherichia coli; experiment: Disruption of transmembrane potential in Escherichia coli live cells harboring pores in outer membrane at 10 uM by DiSC3(5) probe-based fluorescence assay; format: functional
[9] = test system: HEK293; experiment: Cytotoxicity against HEK293 cells assessed as reduction in cell viability after overnight incubation by Cell Titer Glo assay; format: cell-based; settings: Homo sapiens
[10] = Ratio of MIC for wild type Escherichia coli BW25113 to MIC for Escherichia coli harboring […] pores in the outer membrane; format: functional, cell membranes
[11] = test system: Escherichia coli; experiment: Ratio of MIC for wild type Escherichia coli harboring […] pores in the outer membrane to MIC for AcrAB-TolC knocked out Escherichia coli GD102 harboring […] pores in the outer membrane; format: functional
[12] = test system: Escherichia coli; experiment: Ratio of MIC for wild type Escherichia coli harboring […] pores in the outer membrane to MIC for wild type Escherichia coli harboring […] pores in the outer membrane in presence of erythromycin; format: functional
[13] = test system: Escherichia coli; experiment: Inhibition of AcrA in Escherichia coli assessed as HT dye uptake at 25 uM measured up to 600 secs by fluorescence method relative to control
[14] = test system: Escherichia coli; experiment: Ratio of MIC for wild type Escherichia coli harboring […] pores in the outer membrane to MIC for wild type Escherichia coli harboring […] pores in the outer membrane in presence of novobiocin; format: functional
[15] = test system: Escherichia coli BW25113; experiment: Inhibition of AcrA efflux pump in Escherichia coli BW25113 assessed as compound concentration required for potentiation of novobiocin-induced antibacterial activity by 2 fold by checkerboard assay
[16] = test system: Escherichia coli; experiment: Inhibition of AcrA in Escherichia coli assessed as increase in HT dye uptake at 25 uM measured up to 600 secs by fluorescence method relative to control
[17] = test system: Escherichia coli; experiment: Binding affinity to Escherichia coli AG100 His-tagged AcrA at 50 uM by SPR assay

## O=C(Nc1ccc(C2=NCCN2)cc1)c1cccc(C(=O)Nc2ccc(C3=NCCN3)cc2)c1
[1]
  Activity: 200 µM

## Cc1cc(C(=O)Nc2ccc(C3=NCCN3)cc2)ccc1C(=O)Nc1ccc(C2=NCCN2)cc1
[1]
  Activity: 25 µM

## O=C(/C=C/c1ccccc1Cl)Nc1ccc(C2=NCCN2)cc1
[2]
  MIC: > 200 µM
[3]
  MIC: 400 µM (≈ 130 µg/mL)
[4]
  MIC: 200 µM (≈ 65.2 µg/mL)
[5]
  MIC: 100 µM (≈ 32.6 µg/mL)
[1]
  Activity: 25 µM
[6]
  Activity: Active
[7]
  Activity: Active
[8]
  Activity: inactive
[9]
  IC50: 10.5 µM
[10]
  Ratio: 1
[11]
  Ratio: 4
[12]
  Ratio: 8
[13]
  fold change (FC): 9.7
[14]
  Ratio: 32

## O=C(Nc1ccc(C2=NCCN2)cc1)c1ccc(C(=O)Nc2ccc(C3=NCCN3)cc2)c([N+](=O)[O-])c1
[1]
  Activity: 25 µM

## O=C(/C=C/c1ccccc1C(F)(F)F)Nc1ccc(C2=NCCN2)cc1
[1]
  Activity: 50 µM

## O=C(NCc1ccccc1)c1ccc(C(=O)Nc2ccc(C3=NCCN3)cc2)cc1
[1]
  Activity: > 200 µM

## O=C(Nc1ccc(S(=O)(=O)O)cc1)c1ccc(C(=O)Nc2ccc(S(=O)(=O)O)cc2)cc1
[1]
  Activity: > 100 µM

## O=C(/C=C/c1ccccc1Br)Nc1ccc(C2=NCCN2)cc1
[2]
  MIC: > 400 µM
[3]
  MIC: > 400 µM
[4]
  MIC: 200 µM (≈ 74.1 µg/mL)
[5]
  MIC: 100 µM (≈ 37 µg/mL)
[1]
  Activity: 50 µM
[6]
  Activity: Active
[7]
  Activity: Active
[10]
  Ratio: 1
[11]
  Ratio: 8
[12]
  Ratio: 32
[13]
  fold change (FC): 11.6
[14]
  Ratio: 32

## Cn1cnnc1-c1ccc(NC(=O)c2ccc(C(=O)Nc3ccc(-c4nncn4C)cc3)c(Cl)c2)cc1
[1]
  Activity: > 400 µM

## O=C(Cc1ccc(Cl)cc1)Nc1ccc(C2=NCCN2)cc1
[1]
  Activity: > 100 µM

## O=C(Nc1ccc(C2=NCCN2)cc1)c1ccc(Cl)cc1
[1]
  Activity: 200 µM

## O=C(Nc1ccc(C2=NCCN2)cc1)c1ccc(C(=O)Nc2ccc(C3=NCCN3)cc2)c(F)c1
[1]
  Activity: 100 µM

## COc1ccc(/C=C/C(=O)Nc2ccc(C3=NCCN3)cc2)cc1
[1]
  Activity: 100 µM

## N#Cc1cccc(NC(=O)c2ccc(C(=O)Nc3cccc(C#N)c3)c(Cl)c2)c1
[1]
  Activity: > 400 µM

## CC(C)[C@@H]1NC(=O)[C@H](C)OC(=O)[C@@H](C(C)C)NC(=O)[C@@H](C(C)C)OC(=O)[C@H](C(C)C)NC(=O)[C@H](C)OC(=O)[C@@H](C(C)C)NC(=O)[C@@H](C(C)C)OC(=O)[C@H](C(C)C)NC(=O)[C@H](C)OC(=O)[C@@H](C(C)C)NC(=O)[C@@H](C(C)C)OC1=O
[8]; TDE = time-dependent effect
  Activity: Tde

## O=C(Nc1ccc(C2=NCCN2)cc1)c1ccc(C(=O)Nc2ccc(C3=NCCN3)cc2)c(Br)c1
[1]
  Activity: 50 µM

## O=C(Nc1ccc(CO)cc1)c1ccc(C(=O)Nc2ccc(CO)cc2)c(Cl)c1
[1]
  Activity: > 200 µM

## CC(C)(C)c1ccc(/C=C/C(=O)Nc2ccc(C3=NCCN3)cc2)cc1
[2]
  MIC: 25 µM (≈ 8.69 µg/mL)
[3]
  MIC: 25 µM (≈ 8.69 µg/mL)
[4]
  MIC: 12.5 µM (≈ 4.34 µg/mL)
[5]
  MIC: 12.5 µM (≈ 4.34 µg/mL)
[6]
  Activity: Active
[7]
  Activity: Active
[10]
  Ratio: 1
[11]
  Ratio: 2
[12]
  Ratio: 2
[13]
  fold change (FC): 2.6
[14]
  Ratio: 2
[15]
  Activity: 12.5 µM
[16]
  fold change (FC): 2.6

## O=C(Nc1ccc(C2=NCCN2)cc1)c1ccc2c(c1)CN(Cc1ccccc1)C2=O
[1]
  Activity: > 200 µM

## O=C(Nc1cccc(C2=NCCN2)c1)c1ccc(C(=O)Nc2cccc(C3=NCCN3)c2)cc1
[2]
  MIC: 200 µM (≈ 90.5 µg/mL)
[3]
  MIC: 100 µM (≈ 45.3 µg/mL)
[4]
  MIC: 50 µM (≈ 22.6 µg/mL)
[5]
  MIC: 25 µM (≈ 11.3 µg/mL)
[1]
  Activity: 50 µM
[6]
  Activity: Active
[7]
  Activity: Active
[10]
  Ratio: 2
[11]
  Ratio: 4
[12]
  Ratio: 4
[13]
  fold change (FC): 1.7
[14]
  Ratio: 4

## O=C(Nc1ccc(C2=NCCN2)cc1)c1ccc(C(=O)Nc2ccc(C3=NCCN3)cc2)c(Cl)c1
[2]
  MIC: > 200 µM
[3]
  MIC: 100 µM (≈ 48.7 µg/mL)
[4]
  MIC: 25 µM (≈ 12.2 µg/mL)
[5]
  MIC: 12.5 µM (≈ 6.09 µg/mL)
[1]
  Activity: 25 µM
[6]
  Activity: Active
[7]
  Activity: Active
[8]
  Activity: inactive
[10]
  Ratio: 4
[11]
  Ratio: 8
[12]
  Ratio: 8
[13]
  fold change (FC): 3.2
[14]
  Ratio: 16
[17]
  Activity: Active

## N#Cc1ccc(NC(=O)c2ccc(C(=O)Nc3ccc(C#N)cc3)c(Cl)c2)cc1
[1]
  Activity: > 400 µM

## O=C(CCC(=O)Nc1ccc(C2=NCCN2)cc1)Nc1ccc(C2=NCCN2)cc1
[1]
  Activity: > 400 µM

## O=C(/C=C/c1ccc(Br)cc1)Nc1ccc(C2=NCCN2)cc1
[1]
  Activity: 100 µM

## COC(=O)c1ccc(C(=O)Nc2ccc(C3=NCCN3)cc2)cc1
[1]
  Activity: > 400 µM

## O=C(Nc1ccc(C2=NCCN2)cc1)c1ccc2cc(Br)ccc2c1
[2]
  MIC: > 400 µM
[3]
  MIC: 200 µM (≈ 78.9 µg/mL)
[4]
  MIC: 25 µM (≈ 9.86 µg/mL)
[5]
  MIC: 12.5 µM (≈ 4.93 µg/mL)
[1]
  Activity: 25 µM
[6]
  Activity: Active
[7]
  Activity: Active
[10]
  Ratio: 4
[11]
  Ratio: 16
[12]
  Ratio: 16
[13]
  fold change (FC): 16
[14]
  Ratio: 16
[16]
  fold change (FC): 1.6

## Nc1ccc(C2=NCCN2C(=O)c2ccc(C(=O)N3CCN=C3c3ccc(N)cc3)c(Cl)c2)cc1
[1]
  Activity: 50 µM

## O=C(Nc1ccc(NC(=O)c2ccc(C3=NCCN3)cc2)cc1)c1ccc(C2=NCCN2)cc1
[2]
  MIC: 50 µM (≈ 22.6 µg/mL)
[3]
  MIC: 50 µM (≈ 22.6 µg/mL)
[4]
  MIC: 25 µM (≈ 11.3 µg/mL)
[5]
  MIC: 12.5 µM (≈ 5.66 µg/mL)
[1]
  Activity: 12.5 µM
[6]
  Activity: Active
[7]
  Activity: inactive
[17]
  Activity: Active

## O=C(CCc1ccccc1)Nc1ccc(C2=NCCN2)cc1
[1]
  Activity: > 100 µM

## NCc1ccc(NC(=O)c2ccc(C(=O)Nc3ccc(CN)cc3)cc2)cc1
[1]
  Activity: 50 µM

## O=C(/C=C/c1cccc(Cl)c1)Nc1ccc(C2=NCCN2)cc1
[1]
  Activity: 50 µM

## O=C(/C=C/c1ccccc1)Nc1ccc(C2=NCCN2)cc1
[1]
  Activity: 200 µM

## O=C(Nc1ccc(-c2ncc[nH]2)cc1)c1ccc(C(=O)Nc2ccc(-c3ncc[nH]3)cc2)c(Cl)c1
[1]
  Activity: > 400 µM

## O=C(/C=C/c1ccc(Cl)cc1)Nc1ccc(C2=NCCN2)cc1
[2]
  MIC: 200 µM (≈ 65.2 µg/mL)
[3]
  MIC: 100 µM (≈ 32.6 µg/mL)
[4]
  MIC: 50 µM (≈ 16.3 µg/mL)
[5]
  MIC: 25 µM (≈ 8.14 µg/mL)
[1]
  Activity: 25 µM
[7]
  Activity: Active
[10]
  Ratio: 2
[11]
  Ratio: 4
[12]
  Ratio: 4
[13]
  fold change (FC): 2.5
[14]
  Ratio: 8

## O=C(Nc1ccc(C2=NCCN2)cc1)c1ccc(C(=O)Nc2ccc(C3=NCCN3)cc2)cc1
[1]
  Activity: 50 µM

## CC(C)c1ccc(/C=C/C(=O)Nc2ccc(C3=NCCN3)cc2)cc1
[2]
  MIC: 100 µM (≈ 33.3 µg/mL)
[3]
  MIC: 50 µM (≈ 16.7 µg/mL)
[4]
  MIC: 25 µM (≈ 8.34 µg/mL)
[5]
  MIC: 25 µM (≈ 8.34 µg/mL)
[1]
  Activity: 50 µM
[6]
  Activity: Active
[7]
  Activity: Active
[8]
  Activity: inactive
[9]
  IC50: > 100 µM
[10]
  Ratio: 2
[11]
  Ratio: 2
[12]
  Ratio: 8
[13]
  fold change (FC): 6.3
[14]
  Ratio: 8
